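Each compound was tested at five concentrations against cells in 96-well plates for 48 hours. GI50: concentration for 50% inhibition of growth.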 Active and inactive are the calls of the source. Cut-off read from the data, not from the text of the source: active = GI50 up to about 1.1 µM and inactive = higher.
Tests used:
Experiment in all cases: growth of human tumour cells (NCI), 48 h
SNB-75 = tested on: SNB-75
BT-549 = tested on: BT-549
TK-10 = tested on: TK-10
HCT-116 = tested on: HCT-116
SF-539 = tested on: SF-539
PC-3 = tested on: PC-3
DU-145 = tested on: DU-145
SW-620 = tested on: SW-620
SN12C = tested on: SN12C
OVCAR-8 = tested on: OVCAR-8
SK-MEL-2 = tested on: SK-MEL-2
COLO 205 = tested on: COLO 205
RXF 393 = tested on: RXF 393
Hs-578T = tested on: Hs-578T
MOLT-4 = tested on: MOLT-4
SK-MEL-28 = tested on: SK-MEL-28
KM12 = tested on: KM12
M14 = tested on: M14
K562 = tested on: K562
OVCAR-5 = tested on: OVCAR-5

Measured: GI50

Cc1ccc(NC(=O)C(=O)C2C(=O)C3=C(CC2(C)C)NC2C=CC=CC2S3)c(C)c1 (centres undefined)
inactive: SNB-75 30.4 µM | BT-549 > 100 µM | TK-10 > 100 µM | HCT-116 > 100 µM | SF-539 43.8 µM | PC-3 > 100 µM | DU-145 > 100 µM | SW-620 > 100 µM | SN12C > 100 µM | OVCAR-8 37.5 µM | SK-MEL-2 > 100 µM | COLO 205 > 100 µM | RXF 393 > 100 µM | Hs-578T 51.3 µM | MOLT-4 99.8 µM | SK-MEL-28 > 100 µM | KM12 > 100 µM

COc1ccc(/N=C/N(C)C)c(C)c1
inactive: SNB-75 16.7 µM | BT-549 18.3 µM | TK-10 19.8 µM | HCT-116 4.15 µM | M14 13.6 µM | SF-539 22.9 µM | PC-3 3.17 µM | DU-145 4.16 µM | SN12C 14.2 µM | OVCAR-8 7.13 µM | SK-MEL-2 5.15 µM | COLO 205 10.5 µM | RXF 393 10.6 µM | K562 2.51 µM | Hs-578T 1.52 µM | MOLT-4 2.6 µM | SK-MEL-28 12.6 µM | OVCAR-5 20.5 µM

CC(=O)NC1C(OCC(=O)NCCNc2ccc([N+](=O)[O-])c3[nH]c4ccccc4c(=O)c23)C(O)C(CO)OC1(C)OCc1ccccc1 (centres undefined)
inactive: SNB-75 > 100 µM | BT-549 > 100 µM | TK-10 > 100 µM | HCT-116 > 100 µM | M14 > 100 µM | SF-539 > 100 µM | PC-3 > 100 µM | DU-145 > 100 µM | SW-620 > 100 µM | SN12C > 100 µM | OVCAR-8 > 100 µM | SK-MEL-2 > 100 µM | COLO 205 > 100 µM | RXF 393 > 100 µM | K562 > 100 µM | Hs-578T > 100 µM | MOLT-4 > 100 µM | OVCAR-5 > 100 µM | KM12 > 100 µM

CC(C)Oc1cccc(N2C(NCCc3c[nH]c4ccccc34)=Nc3ccncc3S2(=O)=O)c1
inactive: SNB-75 8.05 µM | BT-549 61.1 µM | TK-10 19.2 µM | HCT-116 6.71 µM | M14 10.4 µM | SF-539 33.7 µM | PC-3 6.4 µM | DU-145 22.5 µM | SW-620 8.36 µM | SN12C > 100 µM | OVCAR-8 57.4 µM | SK-MEL-2 20.8 µM | COLO 205 1.79 µM | RXF 393 3.46 µM | K562 3.82 µM | Hs-578T 3.9 µM | MOLT-4 3.94 µM | SK-MEL-28 8.43 µM | OVCAR-5 > 100 µM | KM12 30.5 µM

CC1(C)CCCCCCCCCC(C)(CCCCCCCCCCCCO)C1=O (centres undefined)
inactive: SNB-75 16.1 µM | BT-549 16.6 µM | TK-10 17.7 µM | HCT-116 17.7 µM | SF-539 16.6 µM | PC-3 17.4 µM | DU-145 17.7 µM | SW-620 18.3 µM | SN12C 17.4 µM | OVCAR-8 14.5 µM | SK-MEL-2 17.1 µM | COLO 205 28.6 µM | RXF 393 18.7 µM | K562 20 µM | Hs-578T 19.7 µM | MOLT-4 27.2 µM | SK-MEL-28 18.2 µM | OVCAR-5 18.5 µM | KM12 17.1 µM

CCC(c1ccccc1)c1cc(C(C)(C)C)cc(C(C)(C)C)c1O (centres undefined)
inactive: SNB-75 14.2 µM | BT-549 19.3 µM | TK-10 15.5 µM | HCT-116 12.9 µM | M14 18.6 µM | SF-539 17.4 µM | PC-3 17.7 µM | DU-145 19.1 µM | SW-620 16.5 µM | SN12C 17.3 µM | OVCAR-8 17.3 µM | SK-MEL-2 15.7 µM | COLO 205 18.7 µM | RXF 393 20 µM | K562 16.7 µM | Hs-578T 16.3 µM | SK-MEL-28 18.3 µM | OVCAR-5 13.7 µM | KM12 18.4 µM

O=Cc1ccc2c(c1)CC1(C2)Cc2ccc3c(c2C1)CCC3 (centres undefined)
inactive: SNB-75 7.24 µM | BT-549 5.05 µM | TK-10 16.6 µM | HCT-116 6.82 µM | M14 7 µM | SF-539 9.02 µM | PC-3 5.51 µM | DU-145 22.1 µM | SW-620 3.98 µM | SN12C 8.45 µM | OVCAR-8 13.1 µM | SK-MEL-2 4.02 µM | COLO 205 20.8 µM | RXF 393 11.2 µM | K562 6.34 µM | Hs-578T 7.41 µM | MOLT-4 6.41 µM | SK-MEL-28 12.7 µM | OVCAR-5 > 44.9 µM | KM12 11.4 µM

O=C1CSCC(=O)Nc2ccccc2N1
inactive: BT-549 > 100 µM | TK-10 > 100 µM | HCT-116 > 100 µM | M14 > 100 µM | SF-539 > 100 µM | PC-3 > 100 µM | DU-145 > 100 µM | SW-620 > 100 µM | SN12C > 100 µM | OVCAR-8 > 100 µM | SK-MEL-2 > 100 µM | COLO 205 > 100 µM | RXF 393 > 100 µM | K562 > 100 µM | Hs-578T > 100 µM | MOLT-4 > 100 µM | SK-MEL-28 > 100 µM | OVCAR-5 > 100 µM | KM12 > 100 µM

CCOC(=O)c1c(NC(=O)OC)c(C#N)c2n1CCCCC2
inactive: SNB-75 > 100 µM | BT-549 > 100 µM | TK-10 > 100 µM | HCT-116 > 100 µM | M14 > 100 µM | SF-539 > 100 µM | PC-3 > 100 µM | DU-145 22.8 µM | SW-620 > 100 µM | OVCAR-8 > 100 µM | SK-MEL-2 > 100 µM | COLO 205 > 100 µM | RXF 393 > 100 µM | K562 > 100 µM | Hs-578T > 100 µM | MOLT-4 45.1 µM | SK-MEL-28 > 100 µM | KM12 > 100 µM

CCOC(=O)/C=C(\C(=O)OCC)n1cc(C)c(=O)n(Cc2cn(CCCCOC(C)=O)nn2)c1=O
inactive: SNB-75 15.7 µM | BT-549 10.5 µM | TK-10 7.38 µM | HCT-116 11.3 µM | M14 11.9 µM | SF-539 1.95 µM | PC-3 14.3 µM | DU-145 19.8 µM | SW-620 3.47 µM | SN12C 20.7 µM | OVCAR-8 8.02 µM | SK-MEL-2 15.9 µM | COLO 205 2.98 µM | RXF 393 1.48 µM | K562 2.53 µM | Hs-578T 16.3 µM | MOLT-4 2.44 µM | SK-MEL-28 11.5 µM | OVCAR-5 12.4 µM | KM12 18.5 µM

CN(N=O)C(=O)Nc1ccc(C(=O)O)cc1
inactive: SNB-75 > 100 µM | BT-549 > 100 µM | TK-10 > 100 µM | HCT-116 > 100 µM | M14 > 100 µM | SF-539 > 100 µM | PC-3 > 100 µM | DU-145 > 100 µM | SW-620 > 100 µM | SN12C > 100 µM | OVCAR-8 > 100 µM | SK-MEL-2 > 100 µM | COLO 205 > 100 µM | RXF 393 > 100 µM | K562 > 100 µM | Hs-578T > 100 µM | MOLT-4 > 100 µM | SK-MEL-28 > 100 µM | OVCAR-5 > 100 µM | KM12 > 100 µM

Source: ChEMBL document CHEMBL1201862, “PubChem BioAssay data set” (2004)
